Measurements published in EP3766544A1 (Centre Hospitalier Regional Universitaire de Lille, priority 2019, dated 2021).

How the values were obtained:
[1] = target: T1, hPD-L1-eGFP (Homo sapiens, UniProt Q9NZQ7); test: Microscale thermophoresis (MST) PD-L1 binding assay; settings: CHO-K1 cell lysate, hPD-L1-eGFP 35 nM, PBS-T buffer (0.05% Tween 20)
T1 construct: expressed in transfected cells; host or cells: CHO-K1 (cell lysate used)
Text: The quantity of cells for this protocol can vary from 10 to 40 million. […] Different types of additives such as Tween 20, various MgCl2 concentrations, BSA have been tested to avoid sample aggregation and different types of capillaries have been investigated to reduce the adsorption within capillaries. Various buffers have also been tested and are listed in the related section. The fluorescence measurement is made using a small quantity of cell lysate within a capillary chosen among different available capillaries: standard, premium, hydrophilic or hydrophilic. The highest concentration of ligand must be at least 20 times higher than the expected dissociation constant of the interaction under study. However, the lowest concentration of ligand must be lower than the concentration of the fluorescent protein. An online tool created by NanoTemper® can be used and allows determining the range of ideal concentration. The concentration of the fluorescent protein can be determined using a GFP dosage kit (Abnova KA0911) or a calibration curve.
CHO-K1 cells were transfected with the Cell Line Nucleofector® Kit T, Program U-023 and the pcDNA 3.1 hygro plasmid expressing PD-1-eGFP. 2 µg of plasmid was transfected in one million CHO-K1 cells suspended in 100 µL Nucleofector solution. Cells were analyzed 48 hours post Nucleofection® by flow cytometry. Cells are put under the appropriate selective pressure which will only allow growth of cells containing the DNA insert. After three weeks of selective pressure, the multiparametric analysis of transfected CHO-K1 cells over-expressing mPD-1-eGFP allows defining sub-populations which can be separated from the global population. The population of cells strongly expressing eGFP is analyzed by flow cytometry and kept for MicroScale Thermophoresis analysis. The exact same protocol from transfection to cytometry analysis is lead on CHO-K1 cells expressing the hPD-L1-eGFP protein.
MST was used to establish the binding affinity between PD-L1-eGFP and Compounds. Cell lysate was diluted in PBS-T buffer (0.05% Tween 20) to a final concentration at which the fluorescent signals of the GFP proteins were similar and above the typical detection limit of the Monolith NT.115 instrument (NanoTemper Technologies). […] For the binding between hPD-L1-eGFP with compounds, several dilutions were made between 1mM to 1 nM to cover a wide concentration range. Ten microliters of cell lysate are added to 10 µL of each ligand solution. Nivolumab was taken as reference.

[2] = target: T2, interaction between PD-1 and PD-L1 (Homo sapiens, UniProt Q9NZQ7); test: FRET assay (PD-1-YFP / SHP-2-CFP in CHO-K1 cells, activation with PD-L1); format: cell-based; settings: co-transfected PD-1-SHP2 CHO-K1 cells, after addition of PD-L1 (10 µM)
T2 construct: expressed in transfected cells; host or cells: CHO-K1 co-transfected with PD-1-YFP and SHP-2-CFP
T2 sequence (Q9NZQ7 19-238 limits assumed): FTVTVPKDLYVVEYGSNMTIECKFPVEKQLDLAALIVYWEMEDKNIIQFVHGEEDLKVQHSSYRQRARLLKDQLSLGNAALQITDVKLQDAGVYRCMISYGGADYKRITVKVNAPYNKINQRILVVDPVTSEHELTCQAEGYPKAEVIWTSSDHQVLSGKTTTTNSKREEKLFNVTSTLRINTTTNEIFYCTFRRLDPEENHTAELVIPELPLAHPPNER
Text: Energy transfer between fluorescent molecules (FRET) is a technique that allows visualizing interactions between 2 fluorescent molecules. A fluorescent molecule, called "donor", will transfer its energy, once excited, to another fluorescent molecule called "acceptor". The fluorescence of the donor decreases while the acceptor's one increases (see Figure 1).
A model was developed using CHO-K1 cells involving overexpression of proteins of interest. It involves the expression of a PD-1-YFP fluorescent protein and a second fluorescent protein SHP-2-CFP (phosphatase recruited during the interaction between PD-1 and PD-L1).
A Spectramax i3 is configured according to the selected fluorochromes with their excitation and emission spectra. Endpoint reading is performed, at the center of the well; the reading time is 2 minutes for a 96-well plate.
For this test, a 96-well flat-bottomed white plate is required. All mixes introduced into the plate are made of triplicate. The negative control is provided by the CHO transfected by the void plasmid, the positive control is provided by CHO transfected with a plasmid containing the YFP-CFP fusion protein making it possible to mimic the FRET phenomenon. […] It is also necessary to remove the background noise, that is to say the FRET without activation with PD-L1. […] Nivolumab was taken as positive control of interaction's inhibitions.

[3] = In vitro spread test (CFSE CellTrace cell proliferation, flow cytometry); format: cell-based; settings: IC50 of proliferation, flow cytometry D0 to D3
Text: The CellTrace™ Cell Proliferation Kits provide versatile and well-retained cell tracing reagents in a convenient and easyto-use form. Each kit contains a CellTrace™ reagent in single-use vials to permit small scale experiments without preparing excess quantities of stock solution. The CellTrace™ reagents readily diffuse into cells and bind covalently to intracellular amines, resulting in stable, well-retained fluorescent staining that can be fixed with aldehyde fixatives. Excess unconjugated reagent passively diffuses to the extracellular medium, where it can be quenched with complete media and washed away. The kit is supplied by ThermoFisher Scientific.
• 1. Number of days on which the manipulation is done: 3 (from D0 to D3: 4 passages in cytometry) • 2. Volume of cell suspension needed: 2.5ml (0.5ml / day) • 3. Number of cells needed: 2.5mlx0.5M / ml = 1.25M per cell line. • 4. Number the cells and check their viability. • 5. Prepare the desired number of cells. • 6. Centrifuge, resuspend at a 1M/mL concentration in PBS (the probe binds to the proteins of the medium) • 7. Add 0.5µM of CellTrace (dilute 1/10 of the stock solution, add 1 / 1000th in the PBS-cell mix: take 1µl of probe at the main concentration, add 9µL of PBS) • 8. Incubate for 20 minutes at 37 ° C in the dark. • 9. Add 5 volumes of medium to capture the excess of probe (1.2x5 = 6ml) • 10. Incubate for 5 minutes at 37 ° C. • 11. Centrifuge, resuspend the cells at the desired concentration of 0.5M / ml in preheated medium. Plate 24 wells. • 12. Establish the J0 at least 5h after marking. • 13. Flow cytometry is then performed to evaluate cell division and to determine an IC50 of proliferation using Graphpad.

T1 sequence (Q9NZQ7 19-290): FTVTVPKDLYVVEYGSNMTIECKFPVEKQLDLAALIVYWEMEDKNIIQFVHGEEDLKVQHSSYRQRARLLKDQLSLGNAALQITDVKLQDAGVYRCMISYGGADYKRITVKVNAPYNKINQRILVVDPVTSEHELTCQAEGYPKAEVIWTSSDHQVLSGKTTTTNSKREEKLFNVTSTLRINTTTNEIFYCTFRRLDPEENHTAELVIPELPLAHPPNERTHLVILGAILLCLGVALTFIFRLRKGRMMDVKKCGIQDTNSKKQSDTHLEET

Structure (SMILES) | Kd [1] | IC50 [2] | IC50 [3] | In vitro spread test [3]
O=C1CC(C2CCCCCC2)=NN1c1ccc(Cl)cc1Cl | 80000 ± 12000 nM | 67000 ± 9000 nM |  | 
O=C1CC(c2ccccc2)=NN1c1ccc(Cl)cc1Cl | 14000 ± 3000 nM | 9000 ± 5000 nM |  | 
COc1ccc(C2=NN(c3cc(Cl)ccc3Cl)C(=O)C2)cc1 | 8000 ± 2000 nM | 12000 ± 3000 nM |  | 
COc1ccc(C2=NN(c3ccc(OC)cc3)C(=O)C2)cc1 [ALIPD24, 1-(4-methoxyphenyl)-3-(4-methoxyphenyl)-4,5-dihydro-1H-5-pyrazolone] | 375 ± 43 nM | 230 ± 35 nM |  | No effect
O=C1CC(C23CC4CC(CC(C4)C2)C3)=NN1c1cc(Cl)cc(Cl)c1 [ALIPD28, 3-(Adamantan-1-yl)-1-(3,5-dichlorophenyl)-4,5-dihydro-1H-5-pyrazolone] | 890 ± 75 nM | 785 ± 87 nM |  | 
O=C1CC(c2ccc([N+](=O)[O-])cc2)=NN1c1ccc(Cl)cc1Cl [ALIPD33, 1-(2,4-Dichlorophenyl)-3-(4-nitrophenyl)-4,5-dihydro-1H-5-pyrazolone] | 72000 ± 17000 nM | 43000 ± 6000 nM |  | 
COc1ccc(C2=NN(c3ccc(Cl)cc3Cl)C(=O)C2)cc1OC [ALIPD52, 1-(2,4-Dichlorophenyl)-3-(3,4-dimethoxyphenyl)-4,5-dihydro-1H-5-pyrazolone] | 212 ± 23 nM | 196 ± 17 nM |  | 
COc1ccc(C2=NN(c3cc(Cl)cc(Cl)c3)C(=O)C2)cc1 [ALIPX02, 1-(3,5-Dichlorophenyl)-3-(4-methoxyphenyl)-4,5-dihydro-1H-5-pyrazolone] | 18000 ± 3000 nM | 15000 ± 5000 nM |  | 
COc1ccc(C2=NN(c3ccc(Cl)cc3Cl)C(=O)C2)cc1 [ALIPX05, 1-(2,4-Dichlorophenyl)-3-(4-methoxyphenyl)-4,5-dihydro-1H-5-pyrazolone] | 68000 ± 7000 nM | 51000 ± 3000 nM |  | 
O=C1CC(C23CC4CC(CC(C4)C2)C3)=NN1c1ccccn1 [ALIPX57, 3-(Adamantan-1-yl)-1-(pyridin-2-yl)-4,5-dihydro-1H-5-pyrazolone] | 340 ± 27 nM | 4 ± 2 nM | 192 nM | 

The next lines start with results.

Kd [1] | IC50 [2] | Structure (SMILES) | IC50 [3] | In vitro spread test [3]
83 nM | 17 nM | COc1ccc(C2=NN(c3ccccn3)C(=O)C2)cc1 [ALIPD19, 3-(4-Methoxyphenyl) -1-(pyridin-2-yl)-4,5-dihydro-1H-5-pyrazolone] | 75 nM | 
110 ± 17 nM | 98 ± 12 nM | O=C1CC(c2ccc(Cl)cc2Cl)=NN1c1ccccn1 [ALIPD26, 3-(2,4-Dichlorophenyl)-1-(pyridin-2-yl)-4,5-dihydro-1H-5-pyrazolone] |  | 
1200 nM | 1100 nM | O=C1CC(c2cccc(C(F)(F)F)c2)=NN1c1ccccn1 [ALIPD58, 1-(2-pyridyl)-3-[3-(trifluoromethyl)phenyl]-4,5-dihydro-1H-5-pyrazolone] |  | 
27000 ± 5000 nM | 33000 ± 7000 nM | O=C1CC(c2ccc(Cl)cc2)=NN1c1ccccn1 [ALIPD59, 3-(4-chlorophenyl)-1-(2-pyridyl)-4,5-dihydro-1H-5-pyrazolone] |  | 
23 nM | 7 nM | COc1ccccc1C1=NN(c2ccccn2)C(=O)C1 [ALIPD60, 3-(2-methoxyphenyl)-1-(2-pyridyl)-4,5-dihydro-1H-5-pyrazolone] |  | 
